{"source": "patent US10065951B2", "about": "“Small molecule transcription modulators of bromodomains” (Icahn School of Medicine at Mount Sinai, priority 2014, dated 2018)", "key": {"[1]": {"tested_on": "cuprizone-induced demyelination", "assay": "Cuprizone model of demyelination in old mice", "type": "in vivo, mouse", "conditions": "injection starting during the 3rd week", "experimental": "Effect of treatment with 2.4 μg/Kg 4c (olinone; red bars) and DMSO (black bars) treatment on the expression of progenitor (i.e. NG2), astrocytic (i.e. GFAP) and oligodendrocyte (i.e. MBP, MOG, PLP) genes.\nFIG. 16 illustrates enhanced remyelination in 4c-treated mice. […] Cuprizone damages myelin and this can be best seen as a decreased in the staining intensity. The effect on repair is shown by the darker intensity of the myelinated fibers.\nA similar experiment was repeated in the cuprizone model of demyelination (FIG. 15). This model, characterized by precocious loss of myelin gene transcripts and oligodendrocyte apoptosis, followed by a repair phase characterized by expansion of the progenitor pool followed by differentiation has been previously described (Matsushima, G. K., and Morell, P. (2001). Brain Pathol 11:107-116). It was shown that in young mice the repair phase starts at week 3 and is characterized by the HDAC-dependent phase of differentiation of endogenous progenitors (Shen, S., Sandoval, J., Swiss, V. A., Li, J., Dupree, J., Franklin, R. J., and Casaccia-Bonnefil, P. (2008) Nat Neurosci 11:1024-1034) old mice repair was impaired, due to unopposed HAT activity, resulting in high levels of transcriptional inhibitors of oligodendrocyte differentiation and low myelin gene transcripts."}, "[2]": {"tested_on": "rat primary oligodendrocyte progenitors", "assay": "Oligodendrocyte progenitor differentiation (immunocytochemistry NG2/O4/MBP, qRT-PCR MOG)", "type": "cell-based", "conditions": "10 nM", "experimental": "Early and differentiating progenitors were identified by positive immunoreactivity for the marker NG2 (dark) or O4 (light), respectively. FIG. 6B illustrates the number of NG2+, O4+ and NG2+/O4+ cells quantified in three independent experiments and the total number of oligodendrocyte lineage cells (mean±SD). FIG. 6C illustrates the results of rat primary cells cultured in medium containing 4c (10 nM) for 4 days and then labeled with O4 (light) and with the differentiation marker MBP (dark). FIG. 6D is a bar graph showing the number of MBP+ cells quantified in three independent experiments (mean±SD). FIG. 6E illustrates the qRT-PCR of the transcript levels of the late differentiation marker MOG in treated cells.\nCortex from rat p1 pups were dissected in L-15 medium and collected in NM10 medium (DMEM+10% FBS+2 mM glutamine+1 mM sodium pyruvate+100 U/ml penicillin+100 μg/ml streptomycin). The dissociated cells were plated into 75 cm^2 flasks (1.5 brain per flask) and cultured at 37° C. supplied with 5% CO2 for 7 days with the changing of fresh NM10 medium every other day. At day 8 the flasks were shaken for 16-18 h at 200 rpm and 37° C. and the medium containing the ‘shaken-off’ cells were collected. Oligodendrocyte progenitors (OPCs) were then isolated from the cell suspension by immunoselection using A2B5 antibodies followed by incubation with anti-immunoglobulin magnetic microbeads (50 nm in size and biodegradable) and separation using a high-gradient magnetic field generated by the permanent magnet in the MACS Separator unit (Miltenyi Biotec). The purified OPCs were plated in NM10 medium onto Lab Tek®II 8-well chamber slides (Nalge Nunc Inc.) at a density of 2×10^4 per well for immunocytochemistry, or poly-D-lysine-coated 6-well plates at a density of 2×10^5 per well for RNA isolation. After incubated for 8-16 hr, the medium was changed to ODM (DMEM, 2 mM L-glutamine, 1 mM sodium pyruvate, 10 ng/ml biotin, 100 μg/ml apotransferrin, 100 μM putrescine, 20 nM progesterone, 30 nM sodium selenite, 5 μg/ml insulin, 100 U/ml penicillin, 100 μg/ml streptomycin) supplemented with bFGF (20 ng/ml) and platelet derived growth factor (PDGF; 10 ng/ml), and cultured for additional one day as previously described (He, Y. et al., Neuron 55, 217-30 (2007)). Oligodendrocyte differentiation was induced by culturing the cells in the same medium devoid of mitogens (ODM) with or without compounds at indicated concentrations. […]\nImages were captured at 20× objective using LSM 710 Meta confocal laser scanning microscope (Carl Zeiss MicroImaging, Inc.). For the quantification of the cells at different stages, three fields of each well and three wells of each condition were analyzed. […]"}}}
{"smiles": "CC(=O)NCCCCn1c2c(c3ccccc31)C(=O)NCC2", "note": "[4c, 2,3,4,5-tetrahydro-5-(4′-acetamidobutyl)-1H-pyrido-[4,3-b]indol-1-one]", "values": [{"measurement": "formation of new myelin (eryochrome cyanine staining)", "setting": "[1]", "result": "favors the formation of new myelin"}, {"measurement": "myelin gene transcripts", "setting": "[1]; 2.4 μg/Kg", "result": "increased myelin gene transcripts"}, {"measurement": "percentage of MBP+ cells", "setting": "[2]; 4-day treatment", "result": "increased percentage of MBP+ cells"}, {"measurement": "transcript levels of late-differentiation marker MOG", "setting": "[2]; 4-day treatment, qRT-PCR", "result": "increased transcript levels"}, {"measurement": "NG2+ progenitors", "setting": "[2]; two-day treatment", "result": "concomitant decrease of NG2+ progenitors"}, {"measurement": "percentage of O4+ cells", "setting": "[2]; two-day treatment", "result": "increased percentage of O4+ cells"}]}
